Data from the supplement of paper PMC10307832.

Experiments:
Assay in all cases: relative viability (nuclei count vs DMSO), 5 days (fraction); higher = more cells survive
[1] = compound: COc1cc(N2CCC(N3CCN(C)CC3)CC2)ccc1Nc1ncc(Cl)c(Nc2ccccc2S(=O)(=O)C(C)C)n1 [NVP-TAE684] + COc1cccc2cc(-c3nc([C@H]4CC[C@H](C(=O)O)CC4)n4ncnc(N)c34)[nH]c12 [OSI-027] (partner 0.5 µM)
Summary of the method: (§1)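 Five library-drug doses in √10 steps were combined with a fixed anchor-drug dose, or a single drug was given alone, by pin tool to lung cancer cell lines in 1536-well plates the day after seeding. Nuclei were stained and counted after 5 days. Relative viability is the nuclei count in treated wells over that in vehicle wells, taken as the median of duplicate plates.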

[2] = compound: COc1cc(N2CCC(N3CCN(C)CC3)CC2)ccc1Nc1ncc(Cl)c(Nc2ccccc2S(=O)(=O)C(C)C)n1 [NVP-TAE684] + CC(=O)Nc1cccc(-n2c(=O)n(C3CC3)c(=O)c3c(Nc4ccc(I)cc4F)n(C)c(=O)c(C)c32)c1 [Trametinib] (partner 0.02 µM)
Summary of the method: as §1

[3] = compound: COc1cc2/c(=N/c3ccc(Br)cc3F)nc[nH]c2cc1OCC1CCN(C)CC1 [Vandetanib] + CS(=O)(=O)N1CCN(Cc2cc3nc(-c4cccc5[nH]ncc45)nc(N4CCOCC4)c3s2)CC1 [Pictilisib] (partner 1 µM)
Summary of the method: as §1

[4] = compound: COc1cc(N2CCC(N3CCN(C)CC3)CC2)ccc1Nc1ncc(Cl)c(Nc2ccccc2S(=O)(=O)C(C)C)n1 [NVP-TAE684] + CS(=O)(=O)N1CCN(Cc2cc3nc(-c4cccc5[nH]ncc45)nc(N4CCOCC4)c3s2)CC1 [Pictilisib] (partner 1 µM)
Summary of the method: as §1

[5] = compound: COc1cc(N2CCC(N3CCN(C)CC3)CC2)ccc1Nc1ncc(Cl)c(Nc2ccccc2S(=O)(=O)C(C)C)n1 [NVP-TAE684] + O=C(c1cc(Cc2n[nH]c(=O)c3ccccc23)ccc1F)N1CCN(C(=O)C2CC2)CC1 [Olaparib] (partner 8 µM)
Summary of the method: as §1

Row | Cell Line | relative viability ([1]; first compound 0.2 µM) | relative viability ([1]; first compound 0.6325 µM) | relative viability ([1]; first compound 2 µM) | relative viability ([2]; first compound 0.2 µM) | relative viability ([2]; first compound 0.6325 µM) | relative viability ([2]; first compound 2 µM) | relative viability ([3]; first compound 0.02 µM) | relative viability ([3]; first compound 0.06325 µM) | relative viability ([3]; first compound 0.2 µM) | relative viability ([3]; first compound 0.6325 µM) | relative viability ([3]; first compound 2 µM) | relative viability ([4]; first compound 0.2 µM) | relative viability ([4]; first compound 0.6325 µM) | relative viability ([4]; first compound 2 µM) | relative viability ([5]; first compound 0.2 µM) | relative viability ([5]; first compound 0.6325 µM) | relative viability ([5]; first compound 2 µM)
1 | HARA | 0.538 | 0.351 | 0.281 | 0.575 | 0.69 | 0.155 | 0.385 | 0.248 | 0.337 | 0.369 | 0.392 | 0.459 | 0.238 | 0.275 | 0.76 | 0.891 | 0.299
2 | 201T | 0.762 | 0.732 | 0.474 | 0.712 | 0.716 | 0.629 | 0.663 | 0.648 | 0.652 | 0.706 | 0.692 | 0.699 | 0.676 | 0.652 | 0.886 | 0.823 | 0.815
3 | EMC-BAC-2 | 0.364 | 0.344 | 0.324 | 0.89 | 0.822 | 0.47 | 0.556 | 0.51 | 0.358 | 0.484 | 0.538 | 0.527 | 0.513 | 0.456 | 0.506 | 0.447 | 0.35
4 | NCI-H441 | 0.581 | 0.626 | 0.379 | 0.359 | 0.333 | 0.263 | 0.333 | 0.49 | 0.425 | 0.527 | 0.452 | 0.515 | 0.459 | 0.321 | 0.617 | 0.659 | 0.309
5 | NCI-H1944 | 0.428 | 0.36 | 0.278 | 0.41 | 0.41 | 0.364 | 0.328 | 0.345 | 0.339 | 0.345 | 0.334 | 0.334 | 0.308 | 0.3 | 0.373 | 0.421 | 0.419
6 | NCI-H727 | 0.68 | 0.411 | 0.372 | 0.406 | 0.349 | 0.308 | 0.33 | 0.272 | 0.341 | 0.325 | 0.309 | 0.373 | 0.388 | 0.261 | 0.612 | 0.601 | 0.679
7 | NCI-H1993 | 0.494 | 0.466 | 0.593 | 0.359 | 0.461 | 0.521 | 0.832 | 0.727 | 0.64 | 0.85 | 0.723 | – | 0.781 | 0.832 | 1.11 | 1.09 | 0.749
8 | ChaGo-K-1 | 0.589 | 0.546 | 0.416 | 0.899 | 0.843 | 0.58 | 0.632 | 0.713 | 0.619 | 0.87 | 0.28 | 1.14 | 0.424 | 0.776 | 0.422 | 0.418 | 0.345
